In patent US12167995B2, “[((1R,2S,5R)-2-isopropyl-5-methyl-cyclohexanecarbonyl)-amino]-acetic acid isopropyl ester for treatment of chronic cough” (AXALBION SA, priority 2019, dated 2024):
Entries after “also recorded” stand apart in the source; their conditions may differ.

How the values were obtained:
[1] = tested on: refractory chronic cough (RCC); experiment: Clinical Trial 2: cough severity and associated sensations, 100 mm VAS; format: in vivo, human
Method: Cough Severity was scored on a 100 mm Visual Analog Scale (VAS) at the specified time points. The patient was asked to indicate their assessment by marking (e.g., with a pen) a position along a 100 mm line between two extremes, e.g., “no cough” and “worst cough”. Urge-to-cough was scored on a 100 mm VAS at the specified time points. Throat irritation was scored on a 100 mm VAS at the specified time points. Throat cooling was scored on a 100 mm VAS at the specified time points. At least 24 hours after the Baseline Visit cough monitor has been attached on Day 0, and preferably before 10 am, the following activities were performed by clinic staff (not specified by the order below): • Remove the Baseline Visit cough monitor. • Update medical history. • Record all concomitant medication use. • Inclusion/exclusion criteria review. • If all inclusion and exclusion criteria were met, enroll patient into study. • Vital signs: before dose and 4 hours after dose. • 12-lead ECG (before dose). • Laboratory tests: • Urine drugs-of-abuse testing. • Pharmacokinetic (PK) sample taken. • Provide subject with VAS diary and instruct them to complete VAS assessments at +5 and +6 hours at home (see below). • Before dosing, attach and activate Treatment Visit cough monitor. • Administer the dose of the study drug (preferably before 10 am). • Cough severity VAS assessment: • Prior to dose: • −30 minutes. • After dose: • +1, +2, +3, +4, +5, +6 hours. • Urge-to-cough VAS assessment: • Prior to dose: • −30 minutes. • After dose: • +1, +2, +3, +4, +5, +6 hours. • Throat irritancy VAS assessment: • Prior to dose: • −30 minutes. • After dose: • +1, +2, +3, +4, +5, +6 hours. • Throat cooling VAS assessment: • Prior to dose: • −30 minutes. • After dose: • +1, +2, +3, +4, +5, +6 hours. • GRCS assessment at 4 hours after dose. • Schedule Follow-Up Visit. • Once the Investigator confirmed it was safe to do so, the subject could leave the unit after the assessments 4 hours after dose were complete. At least 24 hours after the Treatment Visit cough monitor has been attached (on Day 1), the following activities were performed by clinic staff (not specified by the order below): • Remove the Treatment Visit cough monitor. • Collect and review the VAS diary for completeness. • Overall impression of the treatment day (24 hours) with: • Cough severity VAS assessment. • Urge-to-cough VAS assessment. • Throat irritancy VAS assessment. • Throat cooling VAS assessment. • GRCS assessment. • Record all adverse events. • Record all concomitant medication use. • Schedule End of Study visit. End of Study Visit (Visit 5): The following procedures and evaluations were performed at the clinic between Day 7 and 14. At this visit, the following procedures and assessments were performed by clinic staff (not specified by the order below): • Cough severity VAS assessment. • Urge-to-cough VAS assessment. • Throat irritancy VAS assessment. • GRCS assessment. • Vital signs. • Weight. • Physical examination. • 12-lead ECG. • Laboratory tests: • Hematology. • Chemistry. • Urinalysis. • Urine pregnancy test for females of childbearing potential. • Record all adverse events. • Record all concomitant medication use.

[2] = target: T1, hTRPV1 (Homo sapiens, UniProt Q8NER1); experiment: FLIPR calcium assay, selectivity against hTRPV1 (expressed in HEK-293); format: cell-based
T1 construct: expressed in transfected cells; host or cells: HEK-293
T1 sequence (Q8NER1 whole entry): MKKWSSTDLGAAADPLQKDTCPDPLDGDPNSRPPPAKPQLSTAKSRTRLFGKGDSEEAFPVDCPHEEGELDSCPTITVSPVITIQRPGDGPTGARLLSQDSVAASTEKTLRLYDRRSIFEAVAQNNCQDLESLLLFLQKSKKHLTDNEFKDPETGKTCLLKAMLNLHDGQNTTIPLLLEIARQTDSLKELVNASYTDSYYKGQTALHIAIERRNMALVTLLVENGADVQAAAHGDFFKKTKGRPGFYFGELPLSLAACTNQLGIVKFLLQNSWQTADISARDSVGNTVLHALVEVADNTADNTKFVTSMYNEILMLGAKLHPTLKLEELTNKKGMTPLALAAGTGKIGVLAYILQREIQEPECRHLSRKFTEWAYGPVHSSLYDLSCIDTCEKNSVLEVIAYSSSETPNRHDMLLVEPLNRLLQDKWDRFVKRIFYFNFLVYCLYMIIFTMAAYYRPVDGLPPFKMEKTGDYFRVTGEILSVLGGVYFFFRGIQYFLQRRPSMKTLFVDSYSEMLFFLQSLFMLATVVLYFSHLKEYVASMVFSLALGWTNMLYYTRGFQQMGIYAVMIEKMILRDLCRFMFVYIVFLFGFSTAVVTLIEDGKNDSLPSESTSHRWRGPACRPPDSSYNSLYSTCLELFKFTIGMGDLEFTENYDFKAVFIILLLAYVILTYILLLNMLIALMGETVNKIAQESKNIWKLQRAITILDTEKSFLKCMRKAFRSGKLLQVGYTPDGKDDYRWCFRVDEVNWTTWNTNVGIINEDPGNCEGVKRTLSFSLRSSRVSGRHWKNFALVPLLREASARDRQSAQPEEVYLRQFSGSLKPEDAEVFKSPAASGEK
Method: Similarly, selectivity against hTRPA1 (expressed in CHO) and hTRPV1 (expressed in HEK-293) was assessed using FLIPR® calcium assay (at 100 μM, i.e., 10-fold more than the concentration for maximal response; see FIG. 12). […] For the agonist effect assessment, the effect of AX-8 was evaluated in the absence of the positive control agonist. The maximal signal elicited in the presence of the respective agonist (300 μM mustard oil for TRPA1; 3 μM capsaicin for TRPV1) was set to 100% activation and the signal in the presence of the vehicle control (HB-PS) was set to 0% activation. For the antagonist effect assessment, the channels were activated with the respective positive control agonist (100 μM mustard oil for TRPA1; 0.1 μM capsaicin for TRPV1). The effects of AX-8 to inhibit the signal was examined after agonist stimulation and compared to the respective positive control antagonist (3 μM ruthenium red). For each channel, the signal elicited in the presence of the respective positive control agonist was set to 100 (0% inhibition) and the signal in the presence of the respective positive control antagonist was set to 0 (100% inhibition).

CC(C)OC(=O)CNC(=O)[C@@H]1C[C@H](C)CC[C@H]1C(C)C [AX-8, [((1R,2S,5R)-2-isopropyl-5-methyl-cyclohexanecarbonyl)-amino]-acetic acid isopropyl ester]
Urge-to-Cough VAS, Median, Follow-Up (Visit 4) ([1]; >24-hour period after treatment, n=11, Screening 51.5): 46.0 mm
Throat Irritation VAS, Median, Follow-Up (Visit 4) ([1]; >24-hour period after treatment, n=11, Screening 55.0): 9.0 mm
Cough Severity VAS, Median, Follow-Up (Visit 4) ([1]; >24-hour period after treatment, n=11, Screening 61.5): 47.0 mm
Cough Severity VAS, Median, End of Study (Visit 5) ([1]; Day 7 to 14, n=11): 64.0 mm
Throat Irritation VAS, Median, End of Study (Visit 5) ([1]; Day 7 to 14, n=11): 47.0 mm
Urge-to-Cough VAS, Median, End of Study (Visit 5) ([1]; Day 7 to 14, n=11): 57.0 mm
time of apparent maximum improvement in urge-to-cough ([1]; FIG. 8): about 3 hours
throat cooling VAS time course ([1]; FIG. 10): increase only at 30 minutes
cough severity VAS time course ([1]; hourly for 6 hours after treatment, FIG. 7): reduction from the first hour that persisted for the 6 hours of monitoring
urge-to-cough VAS time course ([1]; hourly for 6 hours after treatment, FIG. 8): improvement from the first hour that persisted for the 6 hours of monitoring
throat irritation VAS time course ([1]; hourly for 6 hours after treatment, FIG. 9, baseline lower on treatment day): improvement from the first hour that persisted for the 6 hours of monitoring
antagonistic interaction with TRPV1 ([2]; at 100 μM, channel activated with 0.1 μM capsaicin, control antagonist 3 μM ruthenium red): no agonistic or antagonistic interactions
agonistic activity on hTRPV1 ([2]; concentrations ≤100 μM, % of capsaicin maximal response, n=4): no agonistic or antagonistic interactions; also recorded: no agonistic activity on hTRPV1
